From US20040241754A1, “Modulating neuronal plasticity” (The Salk Institute for Biological Studies, priority 2003, published 2004)
“Also recorded” adds a separate entry of the source. Square brackets hold non-standard residues; d marks the D form. Ends that are not written are not given here. pS = N[C@@H](COP(=O)(O)O)C(=O)O

Assays:
GRIP PDZ4-6 = target: T1, GRIP PDZ4-6 (Rattus norvegicus, UniProt P97879); test: Competitive binding of 35S-EphB2 to His-GRIP-PDZ4-6; settings: for displacement of labeled EphB2 from GRIP PDZ4-6: concentrations of up to 10 μM peptide
T1 construct: corresponding to GRIP1 (amino acid 448-792); made in house; host or cells: E. coli BL21
T1 sequence (P97879 448-792): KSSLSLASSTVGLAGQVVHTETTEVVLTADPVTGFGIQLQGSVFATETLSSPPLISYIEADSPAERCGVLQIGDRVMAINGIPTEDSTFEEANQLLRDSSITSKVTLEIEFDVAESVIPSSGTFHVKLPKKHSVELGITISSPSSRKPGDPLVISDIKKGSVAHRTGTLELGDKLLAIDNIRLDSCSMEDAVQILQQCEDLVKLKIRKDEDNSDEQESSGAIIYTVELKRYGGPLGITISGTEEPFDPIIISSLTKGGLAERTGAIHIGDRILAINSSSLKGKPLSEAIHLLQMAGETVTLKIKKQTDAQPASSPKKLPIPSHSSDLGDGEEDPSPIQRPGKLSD
Procedure: A competitive binding assay was prepared to determine if the LTP inhibitory effects of the GluR2ct peptide were mediated through disruption of binding between Eph receptors and PDZ domain 6 of GRIP (Torres et al., Neuron 21, 1453-63. (1998)) as opposed to disruption of binding between the GluR2 subunit and the GluR2-binding PDZ 4 and 5 domains of GRIP (Dong et al., Nature 386, 279-84. (1997)). For this purpose, a binding assay was established between GRIP PDZ domain fragments (His-GRIP-PDZ4-6) and an EphB2 carboxy terminal fusion protein labeled with ^35S-methionine (^35S-EphB2).
Briefly, the carboxy terminal region of EphB2 corresponding to mouse EphB2 receptor (amino acid 930-993) was generated by PCR from mouse brain library and subcloned into pGEX2TK (Pharmacia). The GRIP(PDZ4-6) construct, corresponding to GRIP1 (amino acid 448-792) was obtained by PCR from an adult rat hippocampal library and subcloned into pRSET vector. E coli (strain BL21) were transformed with His-GRIP(PDZ4-6) and GST-EphB2 and protein production induced with IPTG. GST-EphB2 protein was purified on glutathionine beads and ^35S-EphB2 cleaved from GST with thrombin (1 U/μg). GRIP(PDZ4-6) protein was purified on Ni-NTA agarose, and eluted with imadazole. ^35S-EphB2 (50 nM) was incubated with (15 μg) of His-GRIP(PDZ4-6) protein in PBS buffer with protease inhibitors for 2 hrs at 22° C. in the absence or presence of peptides. ^35S-EphB2 binding to His-GRIP(PDZ4-6) was determined after a 45 min incubation with Ni-NTA agarose and vacuum filtration onto Whatman GFB filter circles (pretreated with 3% BSA). Filters were washed with ice-cold PBS buffer, allowed to equilibrate overnight in ECOLUME scintillation cocktail (ICN pharmaceuticals, Irvine Calif.), and specific counts measured in a scintillation counter. Non-specific binding was defined as the residual binding measured in the absence of His-GRIP(PDZ4-6).

[1] = test system: mossy fiber synapses of hippocampal CA3 pyramidal neurons; test: Mossy fiber LTP, whole-cell patch clamp in hippocampal slices; format: cell-based, mice; settings: for LTP (potentiation of the EPSC after tetanic stimulation): peptide 50 μM in patch electrode (postsynaptic), 25 to 30 minutes after tetanic stimulation; for LTP PPR (paired pulse ratio after LTP induction) / control PPR (paired pulse ratio before LTP induction): 40 ms interval
Procedure: The role of the GluR2 subunit in LTP at mossy fiber terminals was evaluated in whole cell patch clamp experiments using hippocampal CA3 pyramidal neurons. Briefly, transverse hippocampal slices (350 μm) were made from P12-18 mice (strain 129SvEv) as previously described (Contractor et al., Neuron 29, 209-16. (2001)). Slices were transferred to a recording chamber, and whole-cell patch clamp recordings made from visually identified pyramidal cells in the CA3 region of the hippocampus. The recording electrode (i.e., patch electrode) is filled with an “internal” solution described below. A seal between the glass of the electrode and the membrane of the cell is made. The seal is then “broken through” by pushing the electrode through the membrane to gain low resistance access to the cell interior and enable voltage clamping of the cell membrane. This also allows dialysis of the cell with test reagents such as peptides and antibodies. A stimulating electrode is attached to a current source and allows current to stimulate action potentials while a reference electrode is placed in the recording bath. The composition of the internal solution was: 95 mM CsF, 25 mM CsCl, 10 mM Cs-HEPES, 10 mM Cs-EGTA, 2 mM NaCl, 2 mM Mg-ATP, 10 mM QX-314, 5 mM TEA-Cl, 5 mM 4-AP, pH adjusted to 7.3 with CsOH.
Peptides were added directly to the internal solution on the day of the experiment from frozen stocks in protease inhibitors made up in phosphate buffered saline (PBS). To avoid leakage of peptides or antibodies into the extracellular space, pipette tips were filled with normal internal solution and then the pipette was backfilled with peptide/antibody containing internal fluid. The final concentration of peptides was 50 μM in all experiments. The final concentration of protease inhibitors were: bestatin 2 μg/ml, leupeptin 25 ng/ml, pepstatin 35 ng/ml, aprotinin 100 ng/ml.
In control experiments where peptides were not included, internal solutions were made up in exactly the same way with protease inhibitors in PBS but lacking any added peptide. Antibodies were made up in PBS stock and added directly to the internal solution at a final concentration of 20 μg/ml. The pH and osmolarity of all internal solutions were checked before use. Series resistances (Rs) were generally <10M and were continuously monitored throughout the duration of the experiment. […] Experiments using mutant mice were performed with heterozygous breedings blind to the genotype of the animal.
Mossy fiber EPSCs were evoked with a monopolar glass electrode positioned in the stratum lucidum. EPSCs were evaluated using a 40 ms interval between recordings. All recordings were made in the continuous presence of bicuculline (10 μM), picrotoxin (50 μM) and the NMDA receptor antagonist D-AP5 [D(-)-2-Amino-5-phosphonopentanoic acid; 50 μM]. The group II mGluR agonist, LCCG-1 (10 μM), which selectively depresses mossy fiber transmission, was applied at the end of each experiment. LTP was induced by tetanic stimulation comprising three 1 s stimulations (100 Hz) with a 10 s interval. Data are presented as mean±SEM. Parameters were compared using the Student's unpaired t-test where not specified, and the K-S test, p<0.05 was considered significant.
Cumulative probability is determined by ranking the EPSC data set from the highest to the lowest value from 20 to 30 minutes post tetanization. Each point is graphed with its corresponding percentile. […] The lowest LTP value was about 40% signified by the lowest point on the 1 st graph (open circles) and the largest LTP was about 160%.

[2] = test system: mossy fiber synapses of hippocampal CA3 pyramidal neurons; test: Forskolin-mediated potentiation of mossy fiber EPSCs; format: cell-based, mice; settings: EphB2 peptide in recording electrode
EphA8 = target: T2, EphA8 (Mus musculus, UniProt O09127); settings: read-out: Kd for binding to EphA8; cited from earlier work
T2 sequence (O09127 27-1004): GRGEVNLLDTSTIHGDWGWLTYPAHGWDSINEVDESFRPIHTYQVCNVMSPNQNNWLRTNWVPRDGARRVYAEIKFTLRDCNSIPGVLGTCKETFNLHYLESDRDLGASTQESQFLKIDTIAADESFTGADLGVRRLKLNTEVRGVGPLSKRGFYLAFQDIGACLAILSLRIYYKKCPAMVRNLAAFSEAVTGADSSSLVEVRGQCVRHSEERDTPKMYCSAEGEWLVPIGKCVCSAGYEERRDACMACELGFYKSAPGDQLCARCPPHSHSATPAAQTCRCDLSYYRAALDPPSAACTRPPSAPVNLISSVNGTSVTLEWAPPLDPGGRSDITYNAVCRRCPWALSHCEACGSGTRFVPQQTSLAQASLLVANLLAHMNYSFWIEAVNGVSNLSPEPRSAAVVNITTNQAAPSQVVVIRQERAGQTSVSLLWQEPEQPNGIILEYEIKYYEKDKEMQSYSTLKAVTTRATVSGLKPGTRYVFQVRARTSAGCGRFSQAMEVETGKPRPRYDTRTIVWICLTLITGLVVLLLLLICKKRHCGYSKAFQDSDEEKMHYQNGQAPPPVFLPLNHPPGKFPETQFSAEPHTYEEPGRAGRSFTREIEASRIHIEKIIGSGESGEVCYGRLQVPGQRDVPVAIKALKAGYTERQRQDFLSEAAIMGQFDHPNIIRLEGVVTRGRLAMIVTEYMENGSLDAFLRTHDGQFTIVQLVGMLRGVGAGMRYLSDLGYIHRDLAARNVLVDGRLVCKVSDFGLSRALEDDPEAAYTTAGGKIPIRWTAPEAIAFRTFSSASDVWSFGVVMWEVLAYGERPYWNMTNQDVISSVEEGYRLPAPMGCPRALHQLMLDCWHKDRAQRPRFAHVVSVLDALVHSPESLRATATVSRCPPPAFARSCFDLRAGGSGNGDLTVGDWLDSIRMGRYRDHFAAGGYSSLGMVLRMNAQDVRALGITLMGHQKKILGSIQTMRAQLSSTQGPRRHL

[3] = target: postsynaptic EphB receptors; test: cell-based or functional assay
[4] = peptide 50 μM in patch electrode
[5] = peptide in patch electrode (postsynaptic)
[6] = peptide in patch electrode, 20 to 30 minutes post tetanization

R2ctPO4: phosphorylated GluR2/3 peptide; same as SEQ ID NO: 1 except the serine is phosphorylated (NVYGIE[pS]VKI) [reference compound]
displacement of labeled EphB2 from GRIP PDZ4-6 (GRIP PDZ4-6; listed as GluR2ctPO4): unable to displace binding; also recorded: do not inhibit binding of EphB2 to GRIP | LTP (potentiation of the EPSC after tetanic stimulation) [1]: 210±19% | LTP PPR (paired pulse ratio after LTP induction) [1, 4]: 2.5±0.16 | control PPR (paired pulse ratio before LTP induction) [1, 4]: 3.0±0.18 | effect on tetanus induced LTP [1, 5]: little effect on induction of LTP | effect on tetanus induced LTP ([1]; peptide in patch electrode (postsynaptic), listed as GluR2ctPO4): do not inhibit LTP

NVIYVKSEIG [R2ctSC, reference compound]
displacement of labeled EphB2 from GRIP PDZ4-6 (GRIP PDZ4-6; listed as GluR2ctSC): unable to displace binding; also recorded: do not inhibit binding of EphB2 to GRIP | LTP (potentiation of the EPSC after tetanic stimulation) [1]: 200±11% | LTP PPR (paired pulse ratio after LTP induction) [1, 4]: 2.4±0.10 | control PPR (paired pulse ratio before LTP induction) [1, 4]: 3.1±0.19 | effect on basal synaptic transmission / basal EPSC amplitudes ([1]; peptide in patch electrode): stable | effect on tetanus induced LTP [1, 5]: little effect on induction of LTP | effect on tetanus induced LTP ([1]; peptide in patch electrode (postsynaptic), listed as GluR2ctSC): do not inhibit LTP

QMNQIQSVEV [EphB2 peptide, Gln-Met-Asn-Gln-Ile-Gln-Ser-Val-Glu-Val]
forskolin-mediated potentiation with peptide in the recording electrode [2]: 209±20% | Ki (GRIP PDZ4-6; 35S-EphB2 50 nM, fitted to the Hill equation, read-out: Ki, displacement of 35S-EphB2 binding to His-GRIP-PDZ 4-6): 43 nM | LTP (potentiation of the EPSC after tetanic stimulation) [1]: 125±15% | LTP PPR (paired pulse ratio after LTP induction) [1, 4]: 2.5±0.27 | control PPR (paired pulse ratio before LTP induction) [1, 4]: 2.5±0.22 | PTP (post-tetanic potentiation) ([1]; peptide 50 μM in patch electrode, immediately following tetanic stimulation): 500±76% | effect on PTP [1, 5]: significantly impaired; also recorded: significantly depressed | effect on tetanus induced LTP [1, 5]: significantly impaired; also recorded: inhibit mossy fiber hippocampal CA3 neuronal LTP; also recorded: significantly depressed | largest LTP of single recordings (cumulative probability, FIG. 5) [1, 6]: about 160% | lowest LTP value of single recordings (cumulative probability, FIG. 5) [1, 6]: about 40%

B1: ephrin-A5: a 28 kDa, 228 amino acid glycoprotein; ephrin ligand (protein, UniProt P52803 1-228, looked up)
chain: MLHVEMLTLVFLVLWMCVFSQDPGSKAVADRYAVYWNSSNPRFQRGDYHIDVCINDYLDVFCPHYEDSVPEDKTERYVLYMVNFDGYSACDHTSKGFKRWECNRPHSPNGPLKFSEKFQLFTPFSLGFEFRPGREYFYISSAIPDNGRRSCLKLKVFVRPTNSCMKTIGVHDRVFDVNDKVENSLEPADDTVHESAEPSRGENAAQTPRIPSRLLAILLFLLAMLLTL
modifications: full-length
notes: a 28 kDa, 228 amino acid glycoprotein; ephrin ligand
Kd (EphA8): 0.5 nM

B2: ephrin-B1-Fc fusion protein (Fc fusion, mouse, not shown: a dimerising Fc or GST)
chain (part 1 of 2): ATPLAKNLEPVSWSSLNPKFLSGKGLVIYPKIGDKLDIICPRAEAGRPYEYYKLYLVRPEQAAACSTVLDPNVLVTCNKPHQEIRFTIKFQEFSPNYMGLEFKKYHDYYITSTSNGSLEGLENREGGVCRTRTMKIVMKVGQDPNAVTPEQLTTSRPSKESDNTVKTATQAPGRGSQGDSDGKHETVNQEEKSGPGAGGGGSGDSIEGRMD
chain (part 2 of 2): HHHHH
LTP after tetanus in the presence of ephrinB1-Fc (5 µg/ml) [3]: 139% | forskolin potentiation of mossy fiber EPSCs after pre-application of ephrin-B1-Fc [3]: 219% | post-tetanic potentiation [3]: 430%
